In patent US20240116985A1, “STAPLED PEPTIDES AND METHODS THEREOF” (priority 2020, published 2024):
Read-outs that look alike come from different tables or passages of the source.

Tests used:
CHI Log D procedure = type: physicochemical; conditions: for chromatographic logD: pH 7.4, CHI Log D; for CHI Log D: pH 7.4
[1] = biological target: T1, full-length beta-Catenin (Uniprot ID P35222) (Homo sapiens, UniProt P35222); assay: Fluorescence polarization IC50 (beta-catenin / 5FAM-TCF4 10-53 competition); type: binding
T1 construct: 10 nM full-length beta-Catenin (Uniprot ID P35222)
T1 sequence (P35222 1-781): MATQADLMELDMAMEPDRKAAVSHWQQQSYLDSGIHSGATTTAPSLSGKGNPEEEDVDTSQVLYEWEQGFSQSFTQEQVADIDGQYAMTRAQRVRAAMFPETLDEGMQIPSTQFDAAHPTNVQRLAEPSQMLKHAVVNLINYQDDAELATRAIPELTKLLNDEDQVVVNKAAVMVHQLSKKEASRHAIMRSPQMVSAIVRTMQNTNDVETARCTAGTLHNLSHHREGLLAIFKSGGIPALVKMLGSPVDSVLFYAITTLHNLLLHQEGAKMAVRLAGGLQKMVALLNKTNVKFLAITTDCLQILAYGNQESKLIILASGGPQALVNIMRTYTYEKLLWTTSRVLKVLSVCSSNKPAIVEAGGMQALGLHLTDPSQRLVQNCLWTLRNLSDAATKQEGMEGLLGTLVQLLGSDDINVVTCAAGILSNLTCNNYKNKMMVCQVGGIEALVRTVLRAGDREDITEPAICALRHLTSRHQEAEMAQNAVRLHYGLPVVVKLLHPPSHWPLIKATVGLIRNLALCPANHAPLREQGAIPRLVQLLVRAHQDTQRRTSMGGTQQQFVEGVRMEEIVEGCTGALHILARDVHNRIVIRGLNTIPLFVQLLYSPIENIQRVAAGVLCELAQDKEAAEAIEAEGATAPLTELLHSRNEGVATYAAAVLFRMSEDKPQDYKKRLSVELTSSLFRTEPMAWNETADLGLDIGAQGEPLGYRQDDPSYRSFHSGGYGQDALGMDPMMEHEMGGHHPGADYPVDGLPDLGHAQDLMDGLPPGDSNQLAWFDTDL

[2] = Table E2-1, read-out: beta-Catenin FP IC50
[3] = fluorescence polarization, beta-catenin, read-out: FP EC50
[4] = fluorescence polarization, read-out: beta-Catenin FP IC50

| SMILES | chromatographic logD (CHI Log D procedure) | IC50 [1, 2] | CHI Log D (CHI Log D procedure) | IC50 [1, 3] | IC50 [1, 4] |
| --- | --- | --- | --- | --- | --- |
| CC(=O)N1CCC[C@]12CC=CCCCC1(CCCC=CCCCCCC[C@@](C)(C(=O)N[C@@H](Cc3ccccc3)C(=O)N[C@@H](Cc3c[nH]c4ccccc34)C(=O)N[C@@H](CCC(N)=O)C(N)=O)NC(=O)[C@H](C(C)C)NC(=O)[C@H](Cc3ccccc3F)NC(=O)[C@H](C)NC(=O)[C@H](C)NC(=O)[C@H](CC(=O)O)NC(=O)[C@H](CC(=O)O)NC1=O)NC(=O)[C@H](C)NC(=O)[C@H](CC(=O)O)NC2=O (stereo partly drawn) [I-317, Ac-PL3-Asp-Ala-B5-Asp-Asp-Ala-Ala-2FF-Val-S8-Phe-Trp-Gln-NH2] | 2.02 | 5000 nM |  |  |  |
| CC(=O)N1CCC[C@]12CC=CCCCC1(CCCC=CCCCCCC[C@@](C)(C(=O)N[C@@H](Cc3ccccc3)C(=O)N[C@@H](Cc3csc4ccccc34)C(=O)N[C@@H](CCC(N)=O)C(N)=O)NC(=O)[C@H](C)NC(=O)[C@H](Cc3ccccc3C)NC(=O)[C@H](C)NC(=O)[C@H](C)NC(=O)[C@H](CC(=O)O)NC(=O)[C@H](CC(=O)O)NC1=O)NC(=O)[C@H](C)NC(=O)[C@H](CC(=O)O)NC2=O (stereo partly drawn) [I-366, Ac-PL3-Asp-Ala-B5-Asp-Asp-Ala-Ala-2MeF-Ala-S8-Phe-BztA-Gln-NH2] |  | 1440 nM | 2.084 | 1440 nM |  |
| CC(=O)N1CCC[C@]12CC=CCCCC1(CCCC=CCCCCCC[C@@](C)(C(=O)N[C@@H](Cc3ccccc3C)C(=O)N[C@@H](Cc3csc4ccccc34)C(=O)N[C@@H](CCC(N)=O)C(N)=O)NC(=O)[C@H](C)NC(=O)[C@H](Cc3ccccc3)NC(=O)[C@H](C)NC(=O)[C@H](C)NC(=O)[C@H](CC(=O)O)NC(=O)[C@H](CC(=O)O)NC1=O)NC(=O)[C@H](C)NC(=O)[C@H](CC(=O)O)NC2=O (stereo partly drawn) [I-367, Ac-PL3-Asp-Ala-B5-Asp-Asp-Ala-Ala-Phe-Ala-S8-2MeF-BztA-Gln-NH2] | 2.15 | 177 nM |  |  |  |
| CC(=O)N1CCC[C@]12CC=CCCCC1(CCCC=CCCCCCC[C@@](C)(C(=O)N[C@@H](Cc3ccccc3)C(=O)N[C@@H](Cc3cccc4ccc(F)cc34)C(=O)N[C@@H](CCC(N)=O)C(N)=O)NC(=O)[C@H](C(C)C)NC(=O)[C@H](Cc3ccccc3)NC(=O)[C@H](C)NC(=O)[C@H](C)NC(=O)[C@H](CC(=O)O)NC(=O)[C@H](CC(=O)O)NC1=O)NC(=O)[C@H](C)NC(=O)[C@H](CC(=O)O)NC2=O (stereo partly drawn) [I-368, Ac-PL3-Asp-Ala-B5-Asp-Asp-Ala-Ala-Phe-Val-S8-Phe-7F1NapA-Gln-NH2] | 2.17 | 5000 nM |  |  |  |
| CC(=O)N1CCC[C@]12CC=CCCCC1(CCCC=CCCCCCC[C@@](C)(C(=O)N[C@@H](Cc3cc(F)cc(F)c3)C(=O)N[C@@H](Cc3csc4ccccc34)C(=O)N[C@@H](CCC(N)=O)C(N)=O)NC(=O)[C@H](C(C)C)NC(=O)[C@H](Cc3ccccc3)NC(=O)[C@H](C)NC(=O)[C@H](C)NC(=O)[C@H](CCC(=O)O)NC(=O)[C@H](CC(=O)O)NC1=O)NC(=O)[C@H](C)NC(=O)[C@H](CC(=O)O)NC2=O (stereo partly drawn) [I-394, Ac-PL3-Asp-Ala-B5-Asp-Glu-Ala-Ala-Phe-Val-S8-35FF-BztA-Gln-NH2] | 3.86 |  |  |  | 5000 nM |
| CC(=O)N1CCC[C@]12CC=CCCCC1(CCCC=CCCCCCC[C@@](C)(C(=O)N[C@@H](Cc3cccc(C)c3)C(=O)N[C@@H](Cc3csc4ccccc34)C(=O)N[C@@H](CCC(N)=O)C(N)=O)NC(=O)[C@H](C(C)C)NC(=O)[C@H](Cc3ccccc3)NC(=O)[C@H](C)NC(=O)[C@H](C)NC(=O)[C@H](CCC(=O)O)NC(=O)[C@H](CC(=O)O)NC1=O)NC(=O)[C@H](C)NC(=O)[C@H](CC(=O)O)NC2=O (stereo partly drawn) [I-395, Ac-PL3-Asp-Ala-B5-Asp-Glu-Ala-Ala-Phe-Val-S8-3MeF-BztA-Gln-NH2] | 4.07 |  |  |  | 5000 nM |
| CC(=O)N1CCC[C@]12CC=CCCCC1(CCCC=CCCCCCC[C@@](C)(C(=O)N[C@@H](Cc3cccc(F)c3)C(=O)N[C@@H](Cc3csc4ccccc34)C(=O)N[C@@H](CCC(N)=O)C(N)=O)NC(=O)[C@H](C(C)C)NC(=O)[C@H](Cc3ccccc3)NC(=O)[C@H](C)NC(=O)[C@H](C)NC(=O)[C@H](Cc3c[nH]cn3)NC(=O)[C@H](CC(=O)O)NC1=O)NC(=O)[C@H](C)NC(=O)[C@H](CC(=O)O)NC2=O (stereo partly drawn) [I-396, Ac-PL3-Asp-Ala-B5-Asp-His-Ala-Ala-Phe-Val-S8-3FF-BztA-Gln-NH2] |  |  | 2.819 | 3430 nM | 3430 nM |
| CC(=O)N1CCC[C@]12CC=CCCCC1(CCCC=CCCCCCC[C@@](C)(C(=O)N[C@@H](Cc3cccc(F)c3)C(=O)N[C@@H](Cc3csc4ccccc34)C(=O)N[C@@H](CCC(N)=O)C(N)=O)NC(=O)[C@H](C(C)C)NC(=O)[C@H](Cc3ccccc3)NC(=O)[C@H](C)NC(=O)[C@H](C)NC(=O)[C@H](Cc3c[nH]cn3)NC(=O)[C@H](CC(=O)O)NC1=O)NC(=O)[C@H](C)NC(=O)[C@H](CC(=O)O)NC2=O (stereo partly drawn) [I-397, Ac-PL3-Asp-Ala-B5-Asp-His-Ala-Ala-Phe-Val-S8-3FF-BztA-Gln-NH2] |  |  | 2.828 | 2230 nM | 2230 nM |
| CC(=O)N1CCC[C@]12CC=CCCCC1(CCCC=CCCCCCC[C@@](C)(C(=O)N[C@@H](Cc3cccc(F)c3)C(=O)N[C@@H](Cc3csc4ccccc34)C(=O)N[C@@H](CCC(N)=O)C(N)=O)NC(=O)[C@H](CCC(N)=O)NC(=O)[C@H](Cc3ccccc3)NC(=O)[C@H](C)NC(=O)[C@H](C)NC(=O)[C@H](Cc3c[nH]cn3)NC(=O)[C@H](CC(=O)O)NC1=O)NC(=O)[C@H](C)NC(=O)[C@H](CC(=O)O)NC2=O (stereo partly drawn) [I-399, Ac-PL3-Asp-Ala-B5-Asp-His-Ala-Ala-Phe-Gln-S8-3FF-BztA-Gln-NH2] | 2.52 |  |  |  | 2500 nM |
| CC(=O)N1CCC[C@]12CC=CCCCC1(CCCC=CCOC(=O)N(C)CCC[C@@](C)(C(=O)N[C@@H](Cc3cccc(F)c3)C(=O)N[C@@H](Cc3csc4ccccc34)C(=O)N[C@@H](CCC(N)=O)C(N)=O)NC(=O)[C@H](CCC(N)=O)NC(=O)[C@H](Cc3ccccc3)NC(=O)[C@H](C)NC(=O)[C@H](C)NC(=O)[C@H](Cc3c[nH]cn3)NC(=O)[C@H](CC(=O)O)NC1=O)NC(=O)[C@H](C)NC(=O)[C@H](CC(=O)O)NC2=O (stereo partly drawn) [I-400, Ac-PL3-Asp-Ala-B5-Asp-His-Ala-Ala-Phe-Gln-SeN-3FF-BztA-Gln-NH2] | 1.92 |  |  |  | 3590 nM |
| CC(=O)N1CCC[C@]12CC=CCCCC1(CCCC=CCCCCCC[C@@](C)(C(=O)N[C@@H](Cc3cccc(F)c3)C(=O)N[C@@H](Cc3csc4ccccc34)C(=O)N[C@@H](CCC(N)=O)C(N)=O)NC(=O)[C@H](CCC(N)=O)NC(=O)[C@H](Cc3cccs3)NC(=O)[C@H](C)NC(=O)[C@H](C)NC(=O)[C@H](CCC(=O)O)NC(=O)[C@H](CC(=O)O)NC1=O)NC(=O)[C@H](C)NC(=O)[C@H](CC(=O)O)NC2=O (stereo partly drawn) [I-401, Ac-PL3-Asp-Ala-B5-Asp-Glu-Ala-Ala-2Thi-Gln-S8-3FF-BztA-Gln-NH2] | 2.28 |  |  |  | 134 nM |
| CC(=O)N1CCC[C@]12CC=CCCCC1(CCCC=CCCCCCC[C@@](C)(C(=O)N[C@@H](Cc3cccc(F)c3)C(=O)N[C@@H](Cc3csc4ccccc34)C(=O)N[C@@H](CCC(N)=O)C(N)=O)NC(=O)[C@H](C(C)C)NC(=O)[C@H](Cc3ccccc3)NC(=O)[C@H](C)NC(=O)[C@H](C)NC(=O)[C@H](Cc3cccs3)NC(=O)[C@H](CC(=O)O)NC1=O)NC(=O)[C@H](C)NC(=O)[C@H](CC(=O)O)NC2=O (stereo partly drawn) [I-402, Ac-PL3-Asp-Ala-B5-Asp-2Thi-Ala-Ala-Phe-Val-S8-3FF-BztA-Gln-NH2] | 3.39 |  |  |  | 5000 nM |
| CC(=O)N1CCC[C@]12CC=CCCCC1(CCCC=CCCCCCC[C@@](C)(C(=O)N[C@@H](Cc3cccc(F)c3)C(=O)N[C@@H](Cc3csc4ccccc34)C(=O)N[C@@H](CCC(N)=O)C(N)=O)NC(=O)[C@H](C(C)C)NC(=O)[C@H](Cc3ccccc3)NC(=O)[C@H](C)NC(=O)[C@H](C)NC(=O)[C@H](Cc3cn(C)cn3)NC(=O)[C@H](CC(=O)O)NC1=O)NC(=O)[C@H](C)NC(=O)[C@H](CC(=O)O)NC2=O (stereo partly drawn) [I-403, Ac-PL3-Asp-Ala-B5-Asp-1meH-Ala-Ala-Phe-Val-S8-3FF-BztA-Gln-NH2] | 2.87 |  |  |  | 2130 nM |
| CC(=O)N1CCC[C@]12CC=CCCCC1(CCCC=CCCCCCC[C@@](C)(C(=O)N[C@@H](Cc3cccc(F)c3)C(=O)N[C@@H](Cc3csc4ccccc34)C(=O)N[C@@H](CCC(N)=O)C(N)=O)NC(=O)[C@H](CCC(N)=O)NC(=O)[C@H](Cc3cccc(C)c3)NC(=O)[C@H](C)NC(=O)[C@H](C)NC(=O)[C@H](CN(CC(=O)O)CC(F)(F)F)NC(=O)[C@H](CC(=O)O)NC1=O)NC(=O)[C@H](C)NC(=O)[C@H](CC(=O)O)NC2=O (stereo partly drawn) [I-404, Ac-PL3-Asp-Ala-B5-Asp-TfeGA-Ala-Ala-3MeF-Gln-S8-3FF-BztA-Gln-NH2] | 2.4 |  |  |  | 1850 nM |
